# Measurements published in patent US9988381B2, “Five-member-heterocycle fused pyridine compounds, method of producing the same, and use thereof” (SHANGHAI INSTITUTE OF MATERIA MEDICA, CHINESE ACADEMY OF …, priority 2013, dated 2018).
# Like-named read-outs stand apart in the source and are kept apart here.
# Tests used:
# [1] = molecular target: T1, c-Met kinase domain recombinant protein (Homo sapiens, UniProt P08581); test: biochemical; settings: read-out: Inhibition rate at 10 μM (%)
# T1 construct: 50 μL diluted solution of c-Met kinase domain recombinant protein in reaction buffer was added to initiate the reaction
# T1 sequence (P08581 1078-1345 limits assumed): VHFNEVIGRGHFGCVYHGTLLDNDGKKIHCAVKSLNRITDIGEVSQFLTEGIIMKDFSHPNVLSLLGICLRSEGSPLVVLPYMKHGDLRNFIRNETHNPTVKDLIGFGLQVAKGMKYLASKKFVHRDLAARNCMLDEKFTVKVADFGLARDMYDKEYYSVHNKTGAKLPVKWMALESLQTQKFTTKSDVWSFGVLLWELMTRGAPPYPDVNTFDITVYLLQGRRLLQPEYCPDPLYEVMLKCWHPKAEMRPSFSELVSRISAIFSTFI
# Description: (§1) Enzymatic reaction substrate Poly(Glu,Tyr)4:1 was diluted to 20 μg/mL in potassium ion free PBS (10 mM sodium phosphate buffer, 150 mM NaCl, pH7.2-7.4), microplate was coated with this solution at 125 μL per well, and reacted at 37° C. for 12-16 hours. Liquid in wells was discarded. Plate washing: the plate was washed 3 times for 5 minutes each with 200 μL per well of T-PBS (potassium ion free PBS containing 0.1% Tween-20).
# Into each well was added 49 μL diluted ATP solution in reaction buffer (50 mM HEPES pH 7.4, 50 mM MgCl2, 0.5 mM MnCl2, 0.2 mM Na3VO4, 1 mM DTT), and 1 μL per well of compound to be tested was added, then 50 μL diluted solution of c-Met kinase domain recombinant protein in reaction buffer was added to initiate the reaction, each test was setup with two wells of ATP free control. Reaction was performed in a 37° C. shaker (100 rpm) for 1 hour. Liquid in the wells was discarded, and the plate was washed three times with T-PBS.
# Antibody PY99 was added at 100 μL per well (the antibody was 1:500 diluted in T-PBS containing 5 mg/mL BSA), incubated in a 37° C. shaker for 0.5 hour. Liquid in the wells was discarded, and the plate was washed three times with T-PBS.
# Goat anti mouse secondary antibody labeled with horseradish peroxidase was added at 100 μL per well (the antibody was 1:2000 diluted in T-PBS containing 5 mg/mL BSA), incubated in a 37° C. shaker for 0.5 hour. Liquid in the wells was discarded, and the plate was washed three times with T-PBS.
# Reaction was terminated by adding 50 μL per well of 2M H2SO4, the plate was read at 490 nm using a VERSAmax microplate reader with tunable wavelength.
# (§2) Inhibition rate of the sample was calculated using the following equation: […]
# [2] = molecular target: T1, c-Met kinase domain recombinant protein; test: biochemical; settings: for inhibition at 10 µM: read-out: Average inhibition rate at 10 μM (%); for inhibition at 0.1 µM: read-out: Average inhibition rate at 0.1 μM (%); for inhibition at 1 µM: read-out: Average inhibition rate at 1 μM (%)
# Description: as §1, with “discarded, then” for “discarded. Plate washing:”, “(PBS” for “(potassium ion free PBS”
# Into each well was added 50 μL diluted ATP solution in reaction buffer (50 mM HEPES pH 7.4, 50 mM MgCl2, 0.5 mM MnCl2, 0.2 mM Na3VO4, 1 mM DTT), the final concentration was 5 μM. Test compound was diluted in DMSO to proper concentration, added at 1 μL per well or corresponding level of DMSO (negative control wells), then 49 μL diluted solution of c-Met kinase domain recombinant protein in reaction buffer was added to initiate the reaction, each test was setup with two wells of ATP free control. Reaction was performed in a 37° C. shaker (100 rpm) for 1 hour. The plate was washed three times with T-PBS. Primary antibody PY99 diluted solution was added at 100 μL per well, incubated in a 37° C. shaker for 0.5 hour.
# The plate was washed three times with T-PBS. Goat anti mouse secondary antibody labeled with horseradish peroxidase was added at 100 μL per well, incubated in a 37° C. shaker for 0.5 hour. The plate was washed three times with T-PBS. […] Reaction was terminated by adding 50 μL per well of 2M H2SO4, the plate was read at 490 nm using a SPECTRA MAX 190 microplate reader with tunable wavelength.
# as §2
# IC50 was calculated by fitting the data for a four parameter fit using inhibition curve.
Structure (SMILES),inhibition at 10 µM [1] [%],inhibition at 10 µM [2] [%],inhibition at 0.1 µM [2] [%],inhibition at 1 µM [2] [%],IC50 [2] [nM]
"Cn1cc(-c2cnc3cnn(S(=O)(=O)c4ccc(F)cc4)c3c2)cn1 [Compound 7, 1-(4-fluorobenzenesulfonyl)-6-[(1-methyl)-4-pyrazolyl]-1-H-pyrazolo[4,3-b]pyridine]",40.7,40.7,–,–,–
"Cn1cc(-c2cnc3cnn(S(=O)(=O)c4ccccc4C#N)c3c2)cn1 [Compound 8, 1-(2-cyanobenzenesulfonyl)-6-[(1-methyl)-4-pyrazolyl]-1-H-pyrazolo[4,3-b]pyridine]",72.4,72.4,9.2,51.6,–
"Cn1cc(-c2cnc3cnn(S(=O)(=O)c4ccc([N+](=O)[O-])cc4)c3c2)cn1 [Compound 9, 1-(4-nitrobenzenesulfonyl)-6-[(1-methyl)-4-pyrazolyl]-1-H-pyrazolo[4,3-b]pyridine]",22,22,–,–,–
"COc1ccc(S(=O)(=O)n2ncc3ncc(-c4cnn(C)c4)cc32)cc1OC [Compound 10, 1-(3,4-dimethoxybenzenesulfonyl)-6-[(1-methyl)-4-pyrazolyl]-1-H-pyrazolo[4,3-b]pyridine]",37.9,37.9,–,–,–
"Cc1noc(C)c1S(=O)(=O)n1ncc2ncc(-c3cnn(C)c3)cc21 [Compound 11, 1-(3,5-dimethylisoxazolesulfonyl)-6-[(1-methyl)-4-pyrazolyl]-1-H-pyrazolo[4,3-b]pyridine]",48.6,48.6,–,–,–
"Cn1cc(-c2cnc3cnn(S(=O)(=O)c4ccc(F)cc4F)c3c2)cn1 [Compound 12, 1-(2,4-difluorobenzenesulfonyl)-6-[(1-methyl)-4-pyrazolyl]-1-H-pyrazolo[4,3-b]pyridine]",37.5,37.5,–,–,–
"CC(=O)c1ccc(S(=O)(=O)n2ncc3ncc(-c4cnn(C)c4)cc32)cc1 [Compound 13, 1-(4-acetylbenzenesulfonyl)-6-[(1-methyl)-4-pyrazolyl]-1-H-pyrazolo[4,3-b]pyridine]",52.6,52.6,28.5,45.3,–
"Cn1cc(-c2cnc3cnn(S(=O)(=O)c4ccccc4C(F)(F)F)c3c2)cn1 [Compound 14, 1-(2-trifluoromethylbenzenesulfonyl)-6-[(1-methyl)-4-pyrazolyl]-1-H-pyrazolo[4,3-b]pyridine]",74.3,74.3,39.9,54.7,–
"Cn1cc(-c2cnc3cnn(S(=O)(=O)c4ccc(C(F)(F)F)cc4)c3c2)cn1 [Compound 15, 1-(4-trifluoromethylbenzenesulfonyl)-6-[(1-methyl)-4-pyrazolyl]-1-H-pyrazolo[4,3-b]pyridine]",40.6,40.6,–,–,–
"Cn1cc(-c2cnc3cnn(S(=O)(=O)c4cccc(C(F)(F)F)c4)c3c2)cn1 [Compound 16, 1-(3-trifluoromethylbenzenesulfonyl)-6-[(1-methyl)-4-pyrazolyl]-1-H-pyrazolo[4,3-b]pyridine]",73.2,73.2,25.2,56.1,–
"COc1ccc(S(=O)(=O)n2ncc3ncc(-c4cnn(C)c4)cc32)cc1 [Compound 17, 1-(4-methoxybenzenesulfonyl)-6-[(1-methyl)-4-pyrazolyl]-1-H-pyrazolo[4,3-b]pyridine]",49.9,49.9,–,–,–
"Cn1cc(-c2cnc3cnn(S(=O)(=O)c4cnn5cccnc45)c3c2)cn1 [Example 22, 1-(pyrazolo[1,5-a]pyrimidine-3-sulfonyl)-6-[(1-methyl)-4-pyrazolyl]-1-H-pyrazolo[4,3-b]pyridine]",69.5,69.5,24.9,58.7,39.7 ± 6.3
"Cn1cc(-c2cnc3cnn(S(=O)(=O)c4cnc5ncccn45)c3c2)cn1 [Example 23, 1-(imidazo[1,2-a]pyrimidine-3-sulfonyl)-6-[(1-methyl)-4-pyrazolyl]-1-H-pyrazolo[4,3-b]pyridine]",65.1,65.1,26.9,52.7,3.7 ± 1.4
"Cn1cc(-c2cnc3cnn(S(=O)(=O)c4cnc5ccc(C(F)(F)F)cn45)c3c2)cn1 [Example 26, 1-[(6-trifluoromethyl-imidazo[1,2-a]pyridine)-3-sulfonyl]-6-[(1-methyl)-4-pyrazolyl]-1-H-pyrazolo[4,3-b]pyridine]",65.2,65.2,60,63.8,33.9 ± 6.9
"O=S(=O)(c1cnc2ccccn12)n1ncc2ncc(-c3cccnc3)cc21 [Example 30, 1-(imidazo[1,2-a]pyridine-3-sulfonyl)-6-(3-pyridinyl)-1-H-pyrazolo[4,3-b]pyridine]",71,71,48.3,59.7,–
"O=S(=O)(c1cnc2ccccn12)n1ncc2ncc(-c3ccoc3)cc21 [Example 31, 1-(imidazo[1,2-a]pyridine-3-sulfonyl)-6-(3-furanyl)-1-H-pyrazolo[4,3-b]pyridine]",69,69,59,64.1,–
"O=S(=O)(c1cnc2ccccn12)n1ncc2ncc(-c3ccc(C(F)(F)F)cc3)cc21 [Example 32, 1-(imidazo[1,2-a]pyridine-3-sulfonyl)-6-(4-trifluoromethylphenyl)-1-H-pyrazolo[4,3-b]pyridine]",64.2,64.2,52.9,52,–
"O=S(=O)(c1cnc2ccccn12)n1ncc2ncc(-c3ccc4ccccc4c3)cc21 [Example 33, 1-(imidazo[1,2-a]pyridine-3-sulfonyl)-6-(2-naphthyl)-1-H-pyrazolo[4,3-b]pyridine]",53.7,53.7,39.9,47.3,–
"CS(=O)(=O)Nc1ccc(-c2cnc3cnn(S(=O)(=O)c4cnc5ccccn45)c3c2)cc1 [Example 34, 1-(imidazo[1,2-a]pyridine-3-sulfonyl)-6-(4-methylsulfamidophenyl)-1-H-pyrazolo[4,3-b]pyridine]",61.3,61.3,31.3,49.3,–
"CC(C)(C)OC(=O)N1CC=C(c2cnc3cnn(S(=O)(=O)c4cnc5ccccn45)c3c2)CC1 [Example 35, 1-(imidazo[1,2-a]pyridine-3-sulfonyl)-6-[(1-t-butoxycarbonyl)-4-(1,2,3,6-tetrahydropyridinyl)]-1-H-pyrazolo[4,3-b]pyridine]",62.5,62.5,51.1,53.2,–
"O=S(=O)(c1cnc2ccccn12)n1ncc2ncc(-c3ccc4c(c3)OCCO4)cc21 [Example 36, 1-(imidazo[1,2-a]pyridine-3-sulfonyl)-6-[6-(1,4-benzodioxanyl)]-1-H-pyrazolo[4,3-b]pyridine]",66.3,66.3,45.6,60,–
"O=S(=O)(c1cnc2ccccn12)n1ncc2ncc(-c3ccc(CN4CCOCC4)cc3)cc21 [Example 38, 1-(imidazo[1,2-a]pyridine-3-sulfonyl)-6-(4-morpholinomethylphenyl)-1-H-pyrazolo[4,3-b]pyridine]",87.1,87.1,63.2,63.9,–
